Source: PMC10494966 (RSC Advances, 2023)

Biological target: T1, Pancreatic lipase (Sus scrofa, UniProt P00591)
T1 sequence (P00591 1-450): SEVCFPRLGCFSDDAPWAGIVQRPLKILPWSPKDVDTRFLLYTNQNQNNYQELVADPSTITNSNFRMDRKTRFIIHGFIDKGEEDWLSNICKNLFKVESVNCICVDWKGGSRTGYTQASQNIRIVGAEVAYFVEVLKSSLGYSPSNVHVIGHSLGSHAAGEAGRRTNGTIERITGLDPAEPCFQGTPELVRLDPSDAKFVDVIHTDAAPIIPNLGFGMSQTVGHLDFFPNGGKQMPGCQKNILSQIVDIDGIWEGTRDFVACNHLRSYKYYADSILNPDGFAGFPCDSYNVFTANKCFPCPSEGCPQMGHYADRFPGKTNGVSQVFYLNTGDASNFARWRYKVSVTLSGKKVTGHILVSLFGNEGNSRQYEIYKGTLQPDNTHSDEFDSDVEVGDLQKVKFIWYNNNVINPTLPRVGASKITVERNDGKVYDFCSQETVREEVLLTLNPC
Assay: spectrophotometric p-nitrophenyl palmitate hydrolysis, single concentration […]
Format: biochemical

inhibition at 250 µM	Structure (SMILES)
72%	COc1cc2cc(Oc3ccc4ccc(=O)oc4c3)c(=O)oc2cc1O [compound 1, daphnoretin]
52%	COC(=O)c1c(O)cc(O)c2c1OC(c1ccc(O)cc1)C(O)C2 (stereo not shown) [compound 2, 5,7,4′-trihydroxy-8-methoxycarbonyl flavanol]
61.8%	O=C1c2c(O)cc(O)cc2O[C@H](c2ccc(O)cc2)[C@@H]1[C@@H]1C(=O)c2c(O)cc(O)cc2O[C@@H]1c1ccc(O)cc1 [compound 3, neochamaejasmin A]
68%	C[C@@H]1O[C@@H](OC[C@H]2O[C@@H](Oc3c(-c4ccc(O)c(O)c4)oc4cc(O)cc(O)c4c3=O)[C@H](O[C@@H]3O[C@@H](C)[C@H](O)[C@@H](O)[C@H]3O)[C@@H](O)[C@H]2O)[C@H](O)[C@H](O)[C@H]1O [compound 7, quercetin 3-O-α-L-rhamnopyranosyl-(1 → 2)-[α-L-rhamnopyranosyl-(1 → 6)]-β-D-galactopyranoside]
